Data as given in paper PMC12827894, “Structure-guided design of picomolar-level macrocyclic TRPC5 channel inhibitors with antidepressant activity” (Acta Pharmaceutica Sinica. B, 2025).
Like-named read-outs stand apart in the source and are kept apart here.

Tests used:
[1] = target: T1, DAT (Homo sapiens, UniProt Q01959); test: SafetyOne44 panel: DAT; format: cell-based; conditions: 10 μmol/L, read-out: Antagonist JDIC-127 @10 μmol/L
T1 construct: purchased ICE Bioscience ICESTP™ SafetyOne44 Panel

[2] = system: C57BL/6 mice; test: Forced swim test (FST); format: in vivo; conditions: 0.3 or 3 mg/kg p.o., 14 days
[3] = target: T2, H1 (Homo sapiens, UniProt P35367); test: cell-based; conditions: read-out: Antagonist JDIC-127 @10 μmol/L
T2 sequence (P35367 whole entry): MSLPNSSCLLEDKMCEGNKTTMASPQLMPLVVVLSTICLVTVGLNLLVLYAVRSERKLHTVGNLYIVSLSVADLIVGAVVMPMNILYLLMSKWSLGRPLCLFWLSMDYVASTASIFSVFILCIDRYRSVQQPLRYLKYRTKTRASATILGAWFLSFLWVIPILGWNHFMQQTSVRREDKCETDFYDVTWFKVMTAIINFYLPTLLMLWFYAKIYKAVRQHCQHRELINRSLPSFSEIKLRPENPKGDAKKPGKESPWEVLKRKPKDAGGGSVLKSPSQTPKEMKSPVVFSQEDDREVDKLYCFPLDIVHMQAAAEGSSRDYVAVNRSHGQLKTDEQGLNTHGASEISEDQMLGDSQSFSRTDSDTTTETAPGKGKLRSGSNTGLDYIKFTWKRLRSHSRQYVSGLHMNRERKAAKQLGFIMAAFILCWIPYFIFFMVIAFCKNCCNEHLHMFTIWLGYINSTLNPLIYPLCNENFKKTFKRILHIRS

[4] = system: GABAA; format: cell-based
[5] = target: T3, MAO A (Homo sapiens, UniProt P21397); test: SafetyOne44 panel: MAO A; format: biochemical; conditions: 10 μmol/L, read-out: Antagonist JDIC-127 @10 μmol/L
T3 construct: purchased ICE Bioscience ICESTP™ SafetyOne44 Panel

[6] = target: T4, CB2 (Homo sapiens, UniProt P34972); test: cell-based; format: cell-based
T4 construct: purchased ICE Bioscience ICESTP™ SafetyOne44 Panel
T4 sequence (P34972 whole entry): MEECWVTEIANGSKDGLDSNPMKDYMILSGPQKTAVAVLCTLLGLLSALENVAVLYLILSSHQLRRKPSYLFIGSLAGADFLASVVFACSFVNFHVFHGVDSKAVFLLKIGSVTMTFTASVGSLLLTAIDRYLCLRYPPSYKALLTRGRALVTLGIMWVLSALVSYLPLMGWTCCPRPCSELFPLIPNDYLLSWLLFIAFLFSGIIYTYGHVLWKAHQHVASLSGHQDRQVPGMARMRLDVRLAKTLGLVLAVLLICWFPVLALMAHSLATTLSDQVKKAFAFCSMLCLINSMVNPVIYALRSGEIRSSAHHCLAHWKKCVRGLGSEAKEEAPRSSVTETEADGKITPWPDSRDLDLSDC

[7] = target: T2, H1; conditions: H1, agonist mode
[8] = target: T5, PDE4 D2 (Homo sapiens, UniProt Q08499); test: biochemical; conditions: PDE4D2, 10 μmol/L; read-out: Antagonist JDIC-127 @10 μmol/L
T5 construct: purchased ICE Bioscience ICESTP™ SafetyOne44 Panel

[9] = target: COX1 (Homo sapiens, UniProt P23219)
Sequence of COX1 (P23219 24-599): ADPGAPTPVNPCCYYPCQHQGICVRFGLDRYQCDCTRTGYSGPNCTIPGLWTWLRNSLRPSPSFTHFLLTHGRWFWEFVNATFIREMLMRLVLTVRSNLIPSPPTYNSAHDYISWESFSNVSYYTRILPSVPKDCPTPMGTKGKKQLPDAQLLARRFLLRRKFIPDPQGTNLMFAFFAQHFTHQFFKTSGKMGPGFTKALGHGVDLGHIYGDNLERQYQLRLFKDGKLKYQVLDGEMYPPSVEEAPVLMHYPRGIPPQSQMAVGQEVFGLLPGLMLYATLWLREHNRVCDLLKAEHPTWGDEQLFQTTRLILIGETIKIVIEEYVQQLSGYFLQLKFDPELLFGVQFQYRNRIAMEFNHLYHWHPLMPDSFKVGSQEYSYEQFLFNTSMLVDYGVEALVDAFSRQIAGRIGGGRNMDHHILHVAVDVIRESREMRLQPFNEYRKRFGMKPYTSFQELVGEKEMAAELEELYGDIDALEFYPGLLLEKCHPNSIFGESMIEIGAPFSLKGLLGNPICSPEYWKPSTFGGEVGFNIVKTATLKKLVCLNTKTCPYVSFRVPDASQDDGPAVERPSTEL

[10] = target: T6, CCK1 (Homo sapiens, UniProt P32238); test: SafetyOne44 panel: CCK1; format: cell-based; conditions: 10 μmol/L
T6 construct: purchased ICE Bioscience ICESTP™ SafetyOne44 Panel
T6 sequence (P32238 1-428): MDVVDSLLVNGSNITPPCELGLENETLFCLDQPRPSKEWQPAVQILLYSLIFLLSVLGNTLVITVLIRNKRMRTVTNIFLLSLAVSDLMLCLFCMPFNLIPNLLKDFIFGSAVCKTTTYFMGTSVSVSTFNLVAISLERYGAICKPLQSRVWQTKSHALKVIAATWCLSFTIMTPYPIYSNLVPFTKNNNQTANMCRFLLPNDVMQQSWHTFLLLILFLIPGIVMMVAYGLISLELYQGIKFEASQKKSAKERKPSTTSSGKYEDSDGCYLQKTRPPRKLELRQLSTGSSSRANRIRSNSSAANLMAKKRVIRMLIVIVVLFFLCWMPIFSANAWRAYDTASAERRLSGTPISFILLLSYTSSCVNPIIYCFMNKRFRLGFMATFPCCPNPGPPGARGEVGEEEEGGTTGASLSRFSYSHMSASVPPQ

[11] = target: T7, CB1 (Homo sapiens, UniProt P21554); test: cell-based; format: cell-based
T7 construct: purchased ICE Bioscience ICESTP™ SafetyOne44 Panel
T7 sequence (P21554 whole entry): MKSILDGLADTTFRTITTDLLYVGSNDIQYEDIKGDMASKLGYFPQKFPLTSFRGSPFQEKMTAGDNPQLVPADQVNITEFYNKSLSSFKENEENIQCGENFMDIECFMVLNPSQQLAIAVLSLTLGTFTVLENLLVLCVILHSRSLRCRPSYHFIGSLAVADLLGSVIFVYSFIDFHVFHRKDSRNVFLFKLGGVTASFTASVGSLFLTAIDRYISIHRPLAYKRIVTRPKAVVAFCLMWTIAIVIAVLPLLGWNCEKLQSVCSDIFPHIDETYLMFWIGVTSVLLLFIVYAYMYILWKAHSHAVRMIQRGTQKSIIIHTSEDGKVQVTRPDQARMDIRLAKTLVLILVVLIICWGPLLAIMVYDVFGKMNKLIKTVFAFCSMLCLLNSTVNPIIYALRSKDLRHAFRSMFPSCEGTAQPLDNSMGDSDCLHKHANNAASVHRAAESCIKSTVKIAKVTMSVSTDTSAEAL

[12] = target: T8, Cav1.2 (Homo sapiens, UniProt Q13936); format: cell-based; conditions: Cav1.2, 5 μmol/L
T8 construct: ICE Bioscience ICESTP SafetyOne44 Panel

[13] = target: T9, ETA (Homo sapiens, UniProt P25101); test: SafetyOne44 panel: ETA; format: cell-based; conditions: ETA, 10 μmol/L
T9 construct: purchased ICE Bioscience ICESTP™ SafetyOne44 Panel
T9 sequence (P25101 21-427): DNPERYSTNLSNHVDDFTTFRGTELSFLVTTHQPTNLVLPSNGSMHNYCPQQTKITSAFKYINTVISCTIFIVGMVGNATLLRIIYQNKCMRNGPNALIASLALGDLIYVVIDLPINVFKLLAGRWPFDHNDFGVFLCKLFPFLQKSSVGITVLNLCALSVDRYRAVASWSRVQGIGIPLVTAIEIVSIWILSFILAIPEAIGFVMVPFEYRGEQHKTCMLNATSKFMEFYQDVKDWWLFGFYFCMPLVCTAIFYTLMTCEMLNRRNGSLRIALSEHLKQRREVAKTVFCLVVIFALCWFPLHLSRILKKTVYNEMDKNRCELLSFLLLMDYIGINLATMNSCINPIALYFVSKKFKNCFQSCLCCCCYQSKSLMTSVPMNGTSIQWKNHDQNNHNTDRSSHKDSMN

[14] = target: T10, M3 (Homo sapiens, UniProt P20309); test: cell-based; format: cell-based
T10 construct: purchased ICE Bioscience ICESTP SafetyOne44 Panel
T10 sequence (P20309 whole entry): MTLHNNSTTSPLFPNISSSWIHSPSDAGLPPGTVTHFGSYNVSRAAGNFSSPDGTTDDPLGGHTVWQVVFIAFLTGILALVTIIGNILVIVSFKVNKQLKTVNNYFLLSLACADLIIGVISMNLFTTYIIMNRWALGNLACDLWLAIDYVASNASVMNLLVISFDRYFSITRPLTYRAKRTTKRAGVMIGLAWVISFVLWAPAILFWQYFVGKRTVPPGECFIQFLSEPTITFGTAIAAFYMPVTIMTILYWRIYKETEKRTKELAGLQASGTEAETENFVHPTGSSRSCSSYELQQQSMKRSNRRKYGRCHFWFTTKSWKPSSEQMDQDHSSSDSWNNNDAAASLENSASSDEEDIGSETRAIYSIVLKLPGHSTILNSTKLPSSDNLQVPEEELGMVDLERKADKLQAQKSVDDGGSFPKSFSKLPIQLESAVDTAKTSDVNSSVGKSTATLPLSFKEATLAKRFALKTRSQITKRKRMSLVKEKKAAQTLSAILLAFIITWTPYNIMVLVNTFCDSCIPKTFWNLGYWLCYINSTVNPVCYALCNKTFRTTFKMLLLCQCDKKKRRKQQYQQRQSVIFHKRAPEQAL

[15] = target: T11, ACHE (Homo sapiens, UniProt P22303); test: biochemical; conditions: 10 μmol/L, read-out: Antagonist JDIC-127 @10 μmol/L
T11 construct: purchased ICE Bioscience ICESTP™ SafetyOne44 Panel

[16] = system: C57BL/6J mice; test: m-CPP-induced anxiety model, elevated plus maze; format: in vivo; conditions: 10 mg/kg p.o.
[17] = target: T12, 5-HT3A (Homo sapiens, UniProt P46098); format: cell-based
T12 construct: ICE Bioscience ICESTP SafetyOne44 Panel
T12 sequence (P46098 24-478, species assumed): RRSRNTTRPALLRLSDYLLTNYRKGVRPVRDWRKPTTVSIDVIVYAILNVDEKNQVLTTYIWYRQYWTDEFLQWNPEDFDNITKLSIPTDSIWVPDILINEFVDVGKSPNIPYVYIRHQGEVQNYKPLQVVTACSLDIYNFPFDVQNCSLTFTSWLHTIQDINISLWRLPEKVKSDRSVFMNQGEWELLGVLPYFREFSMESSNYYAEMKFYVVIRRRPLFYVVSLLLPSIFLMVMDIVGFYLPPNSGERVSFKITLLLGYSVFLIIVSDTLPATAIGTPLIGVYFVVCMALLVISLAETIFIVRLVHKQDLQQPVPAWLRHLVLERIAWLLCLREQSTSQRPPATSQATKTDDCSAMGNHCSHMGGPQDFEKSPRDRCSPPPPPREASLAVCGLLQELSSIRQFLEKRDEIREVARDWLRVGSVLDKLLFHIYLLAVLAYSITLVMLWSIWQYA

[18] = target: T13, PDE3 A (Homo sapiens, UniProt Q14432); test: SafetyOne44 panel: PDE3A; format: biochemical; conditions: 10 μmol/L, read-out: Antagonist JDIC-127 @10 μmol/L
T13 construct: purchased ICE Bioscience ICESTP™ SafetyOne44 Panel

[19] = target: T14, α2A (Homo sapiens, UniProt P08913); test: cell-based; format: cell-based
T14 construct: purchased ICE Bioscience ICESTP SafetyOne44 Panel
T14 sequence (P08913 whole entry): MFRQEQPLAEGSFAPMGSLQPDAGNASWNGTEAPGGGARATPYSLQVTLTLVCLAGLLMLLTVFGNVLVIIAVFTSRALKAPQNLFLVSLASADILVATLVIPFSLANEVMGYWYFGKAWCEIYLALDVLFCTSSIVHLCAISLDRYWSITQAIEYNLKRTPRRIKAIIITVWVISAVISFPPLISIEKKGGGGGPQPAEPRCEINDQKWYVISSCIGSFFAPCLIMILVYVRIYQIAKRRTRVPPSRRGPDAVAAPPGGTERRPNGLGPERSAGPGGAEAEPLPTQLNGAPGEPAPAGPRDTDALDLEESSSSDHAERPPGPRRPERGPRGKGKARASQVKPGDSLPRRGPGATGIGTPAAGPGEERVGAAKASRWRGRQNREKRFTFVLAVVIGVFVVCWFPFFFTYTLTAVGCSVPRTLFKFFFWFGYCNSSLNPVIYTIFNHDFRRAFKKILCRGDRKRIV

[20] = in vitro; format: in vitro ADME; conditions: not told
Source text: Table 1 Pharmacokinetic properties of JDIC-127. | column: ER; Papp (cm/s)

[21] = target: T15, TRPC5 F576A (Homo sapiens, UniProt Q9UL62, F576A); test: Inhibition of TRPC5 mutant F576A; format: cell-based; conditions: TRPC5 F576A vs wild type
T15 construct: full-length wild-type or mutant TRPC5 was cloned into a pcDNA3.1 vector; expressed in transfected cells; host or cells: HEK293T

[22] = target: T16, nAChRα4β2 (Homo sapiens, UniProt P17787+P43681); test: SafetyOne44 panel ion channels: nAChRα4β2; format: cell-based; conditions: 5 μmol/L
T16 construct: ICE Bioscience ICESTP SafetyOne44 Panel
T16 sequence (P43681 29-627 limits assumed): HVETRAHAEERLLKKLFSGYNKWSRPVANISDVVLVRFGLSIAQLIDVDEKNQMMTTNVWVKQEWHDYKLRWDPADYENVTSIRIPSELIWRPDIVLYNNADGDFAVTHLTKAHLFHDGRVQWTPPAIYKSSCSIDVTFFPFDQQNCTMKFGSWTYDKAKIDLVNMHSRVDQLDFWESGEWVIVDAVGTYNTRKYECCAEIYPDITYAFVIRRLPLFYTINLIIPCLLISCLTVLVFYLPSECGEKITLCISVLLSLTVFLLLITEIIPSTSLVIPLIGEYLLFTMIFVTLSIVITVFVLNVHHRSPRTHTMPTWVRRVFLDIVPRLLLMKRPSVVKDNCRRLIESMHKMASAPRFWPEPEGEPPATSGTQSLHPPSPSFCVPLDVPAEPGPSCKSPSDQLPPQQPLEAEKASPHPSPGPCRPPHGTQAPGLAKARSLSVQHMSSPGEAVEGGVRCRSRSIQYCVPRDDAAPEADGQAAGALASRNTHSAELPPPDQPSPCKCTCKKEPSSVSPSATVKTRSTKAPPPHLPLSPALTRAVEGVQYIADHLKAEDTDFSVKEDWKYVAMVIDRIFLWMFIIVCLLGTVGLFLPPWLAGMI
T16 sequence (P17787 26-502): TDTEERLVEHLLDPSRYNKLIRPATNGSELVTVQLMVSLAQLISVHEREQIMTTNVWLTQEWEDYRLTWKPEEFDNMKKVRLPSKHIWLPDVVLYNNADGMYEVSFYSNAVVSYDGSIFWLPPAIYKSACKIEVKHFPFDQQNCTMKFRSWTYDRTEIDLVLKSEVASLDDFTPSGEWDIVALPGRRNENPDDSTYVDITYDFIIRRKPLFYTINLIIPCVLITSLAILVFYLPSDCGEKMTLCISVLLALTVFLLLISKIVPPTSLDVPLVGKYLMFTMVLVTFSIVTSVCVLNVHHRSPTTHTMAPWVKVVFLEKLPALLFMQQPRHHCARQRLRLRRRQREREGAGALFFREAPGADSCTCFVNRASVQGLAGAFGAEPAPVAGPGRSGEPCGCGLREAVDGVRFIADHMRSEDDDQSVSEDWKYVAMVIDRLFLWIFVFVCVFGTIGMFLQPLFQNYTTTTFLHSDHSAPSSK

[23] = target: T17, M1 (Homo sapiens, UniProt P11229); test: cell-based; format: cell-based
T17 construct: purchased ICE Bioscience ICESTP SafetyOne44 Panel
T17 sequence (P11229 whole entry): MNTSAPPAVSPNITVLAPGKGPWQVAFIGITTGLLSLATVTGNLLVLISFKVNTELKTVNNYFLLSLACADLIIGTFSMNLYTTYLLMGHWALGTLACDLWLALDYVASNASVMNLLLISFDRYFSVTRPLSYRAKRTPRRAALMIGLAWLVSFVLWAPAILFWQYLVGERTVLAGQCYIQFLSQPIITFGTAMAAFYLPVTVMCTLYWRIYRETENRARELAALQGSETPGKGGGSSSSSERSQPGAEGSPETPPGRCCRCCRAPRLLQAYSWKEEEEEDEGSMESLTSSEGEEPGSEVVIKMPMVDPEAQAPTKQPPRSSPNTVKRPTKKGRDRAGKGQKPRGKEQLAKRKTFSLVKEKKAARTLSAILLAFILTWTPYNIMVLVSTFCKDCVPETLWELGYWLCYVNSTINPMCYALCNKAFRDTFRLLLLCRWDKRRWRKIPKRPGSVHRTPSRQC

[24] = system: 44 clinically safety-related targets

O=c1c2c3nc(n2Cc2ccc(Cl)cc2)Oc2ccc(F)c(c2)OCCCCCCn3c(=O)n1CCCO [JDIC-127]
inhibition at 10 µM [1]: -57.6%
immobility time in FST [2]: significantly reduced
inhibition at 10 µM [3]: -3.39%
Agonist JDIC-127 @ 5 μmol/L ([4]; agonist mode): 0.74%
Antagonist JDIC-127 @5 μmol/L ([4]; antagonist mode): 26.35%
inhibition at 10 µM [5]: 15.5%
Agonist JDIC-127 @10 μmol/L ([6]; CB2, agonist mode): 26.01%
inhibition at 10 µM ([6]; CB2, antagonist mode, 10 μmol/L, read-out: Antagonist JDIC-127 @10 μmol/L): -0.84%
Agonist JDIC-127 @10 μmol/L [7]: 3.21%
inhibition at 10 µM [8]: 11.4%
Antagonist JDIC-127 @10 μmol/L [9]: –5.92%
Agonist JDIC-127 @10 μmol/L ([10]; CCK1, agonist mode): –3.36%
inhibition at 10 µM ([10]; CCK1, antagonist mode, read-out: Antagonist JDIC-127 @10 μmol/L): 6.16%
Agonist JDIC-127 @10 μmol/L ([11]; CB1, agonist mode): 33.32%
inhibition at 10 µM ([11]; CB1, antagonist mode, 10 μmol/L, read-out: Antagonist JDIC-127 @10 μmol/L): -9.83%
Antagonist JDIC-127 @5 μmol/L [12]: 20.23%
Agonist JDIC-127 @10 μmol/L ([13]; agonist mode): 1.45%
inhibition at 10 µM ([13]; antagonist mode, read-out: Antagonist JDIC-127 @10 μmol/L): 2.63%
Agonist JDIC-127 @10 μmol/L ([14]; M3, agonist mode): 0.99%
inhibition at 10 µM ([14]; M3, antagonist mode, 10 μmol/L, read-out: Antagonist JDIC-127 @10 μmol/L): -1.46%
inhibition at 10 µM [15]: 0.88%
percentage of entries into the open arms, EPM [16]: significantly increased
Agonist JDIC-127 @ 5 μmol/L ([17]; agonist mode): 0.39%
Antagonist JDIC-127 @5 μmol/L ([17]; antagonist mode): 17.73%
inhibition at 10 µM [18]: 2.27%
Agonist JDIC-127 @10 μmol/L ([19]; agonist mode): –1.14%
inhibition at 10 µM ([19]; antagonist mode, 10 μmol/L, read-out: Antagonist JDIC-127 @10 μmol/L): -8.62%
ER [20]: 1.45
Papp [20]: 1.51 ×10⁻⁶ cm/s
effect of mutation on inhibitory potency of JDIC-127 [21]: significantly diminished
AUC0–t (C57BL/6, 2 mpk, i.v.): 496 h∗ng/mL
AUC0–∞ (C57BL/6, 2 mpk, i.v.): 499 h∗ng/mL
AUC0–t (C57BL/6, 10 mpk, p.o.): 187 h∗ng/mL
AUC0–∞ (C57BL/6, 10 mpk, p.o.): 193 h∗ng/mL
CL (C57BL/6, 10 mpk, p.o.): 865 mL/min/kg
Vd (C57BL/6, 10 mpk, p.o.): 107 L/kg
Agonist JDIC-127 @ 5 μmol/L ([22]; nAChRα4β2, agonist mode): 0.97%
Antagonist JDIC-127 @5 μmol/L ([22]; nAChRα4β2, antagonist mode): 2.92%
Agonist JDIC-127 @10 μmol/L ([23]; M1, agonist mode): –0.83%
inhibition at 10 µM ([23]; M1, antagonist mode, 10 μmol/L, read-out: Antagonist JDIC-127 @10 μmol/L): 0.22%
effect on the 44 safety targets [24]: no significant inhibitory or stimulatory effects
